Laboratory results reported in patent US11696916B2, “Carboxamide-pyrimidine derivatives as SHP2 antagonists” (Merck Patent GmbH, priority 2019, dated 2023).

How the values were obtained:
[1] = target: Full length SHP2 protein (Recombinant Human SHP-2) (Homo sapiens (Human), UniProt Q06124); experiment: SHP2 biochemical assay (DiFMUP, activating peptide IRS1_2pY); settings: DiFMUP substrate, 60 min RT
Experimental: The inhibition of SHP2 by compounds of the invention was monitored using the surrogate substrate DiFMUP after protein activation by a peptide bearing two appropriately spaced phosphotyrosine. […] The generation of the DiFMU product by activated SHP2 was monitored through Fluorescence measurement with a PerkinElmer Envision reader. The inhibitor dose response curves were analyzed with Genedata Screener.

[2] = Pharmacokinetics in mouse; assay type: in vivo; settings: for Cmax Normalized to 1 mgk / AUC (normalized 1 mpk): female CD1 mice; for Cmax Normalized to 1 mgk: normalized to 1 mg/kg; for AUC (normalized 1 mpk): normalized to 1 mpk; for Exposure compared to SHP-099: mouse PK
Experimental: Female CD1 mice (N=3) received a single oral (gavage) or a single intravenous (bolus) injection of compound. […] Consecutive blood samples were taken sub-lingually under isofluorane inhalation from animals after 0.083 (IV), 0.25, 0.5, 1, 2, 4, 6 and 24 h and were further processed to obtain plasma. Samples were protein precipitated and analyzed by LC/MS/MS.

[3] = test system: pERK level in KYSE520 cells; experiment: p-Erk cellular assay in KYSE520 (Mesoscale); assay type: cell-based; settings: Homo sapiens, KYSE-520, 2 h, 2 h compound incubation, read-out: pERK1/2 in KYSE520 IC50
Experimental: The effect of SHP2 inhibitors on pERK level was assessed using phospho-specific antibody using Mesoscale quantification platform. For measuring change in pERK levels using mesoscale, 30,000 cells of MDA MB468 and KYSE520 cells were plated in 96-well tissue culture treated plate in 175 ul volume of media. After an overnight incubation at 37° C., various SHP2 inhibitors were added in different concentration to each well maintaining duplicate wells across plates and incubated with compounds for 2 h at 37° C. followed by a wash with ice cold PBS buffer. The cells were then lysed in lysis buffer and processed and analyzed for p-ERK/ERK as per manufacturer's instructions (Mesoscale discovery, cat No. K15107D-3).

Sequence of Full length SHP2 protein (Recombinant Human SHP-2) (Q06124 2-593): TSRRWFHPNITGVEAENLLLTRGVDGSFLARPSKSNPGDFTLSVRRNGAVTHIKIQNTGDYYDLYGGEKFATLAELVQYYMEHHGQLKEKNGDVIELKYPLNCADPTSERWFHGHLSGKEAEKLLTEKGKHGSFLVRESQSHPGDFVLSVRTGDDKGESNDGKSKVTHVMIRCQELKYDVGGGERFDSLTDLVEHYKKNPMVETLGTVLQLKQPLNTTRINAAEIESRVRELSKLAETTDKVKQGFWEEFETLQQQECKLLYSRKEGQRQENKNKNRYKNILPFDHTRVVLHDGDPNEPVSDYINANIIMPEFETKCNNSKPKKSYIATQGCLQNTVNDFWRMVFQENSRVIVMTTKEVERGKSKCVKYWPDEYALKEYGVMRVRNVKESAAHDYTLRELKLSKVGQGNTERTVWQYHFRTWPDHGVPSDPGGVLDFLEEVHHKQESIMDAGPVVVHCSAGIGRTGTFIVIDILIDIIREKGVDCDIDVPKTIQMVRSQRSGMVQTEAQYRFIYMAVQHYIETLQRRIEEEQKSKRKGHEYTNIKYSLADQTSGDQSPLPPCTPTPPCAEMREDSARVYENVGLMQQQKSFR

`Cc1nc(N2CCC3(CC2)CC(F)(F)C[C@H]3N)nc(C(N)=O)c1-c1cccc(Cl)c1Cl` (atropisomer, axis not shown; (M)) [Compound 96, (5M)-2-[(1R)-1-amino-3,3-difluoro-8-azaspiro[4.5]decan-8-yl]-5-(2,3-dichlorophenyl)-6-methylpyrimidine-4-carboxamide] showed an IC50 [1] of 62 nM.
In the case of `Cc1nc(N2CCC3(CC2)CO[C@@H](C)[C@H]3N)nc(C(N)=O)c1-c1cccc(Cl)c1Cl` (single isomer, unassigned) [Compound 95], the “Cmax Normalized to 1 mgk” value [2] is reported as 150 ng/mL, the “AUC (normalized 1 mpk)” value [2] is reported as 1214 ng·h/mL and the “Exposure compared to SHP-099” value [2] is reported as “higher exposure”.
Compound `C[C@@H]1OCC2(CCN(c3nc(N)c(-c4cccc(Cl)c4Cl)c(C(N)=O)n3)CC2)[C@@H]1N` (atropisomer, axis not shown; (P)) [Compound 66, (5P)-6-amino-2-[(3S,4S)-4-amino-3-methyl-2-oxa-8-azaspiro[4.5]decan-8-yl]-5-(2,3-dichlorophenyl)pyrimidine-4-carboxamide] has an IC50 [1] of 52 nM.
For `CC1(N)CCN(c2nc(N)c(-c3cccc(Cl)c3Cl)c(C(N)=O)n2)CC1` [Compound 27, (4P)-6-amino-2-(4-amino-4-methylpiperidin-1-yl)-5-(2,3-dichlorophenyl)pyrimidine-4-carboxamide], the “Cmax Normalized to 1 mgk” value [2] was 48 ng/mL, the “AUC (normalized 1 mpk)” value [2] was 230 ng·h/mL and the “Exposure compared to SHP-099” value [2] was “higher exposure”.
With `C[C@@H]1OCC2(CCN(c3nc(N)c(-c4cccc(Cl)c4Cl)c(C(N)=O)n3)CC2)[C@@H]1N` (atropisomer, axis not shown; (M)) [Compound 67, (5M)-6-amino-2-[(3S,4S)-4-amino-3-methyl-2-oxa-8-azaspiro[4.5]decan-8-yl]-5-(2,3-dichlorophenyl)pyrimidine-4-carboxamide] the IC50 [1] was 16000 nM.
`NC(=O)c1nc(N2CCC3(CC2)Oc2ncccc2[C@@H]3N)nc(N)c1-c1cccc(Cl)c1Cl` (atropisomer, axis not shown; (M)) [Compound 130, (4M)-6-amino-2-[(3R)-3-amino-3H-spiro[furo[2,3-b]pyridine-2,4-piperidin]-1-yl]-5-(2,3-dichlorophenyl)pyrimidine-4-carboxamide] gave an IC50 [3] of 2240 nM.
With `Cc1nc(N2CCC3(CC2)Cc2ccccc2[C@H]3N)nc(C(N)=O)c1-c1cccc(Cl)c1Cl` (atropisomer, axis not shown; (M)) [Compound 119, (M)-2-[(1S)-1-amino-1,3-dihydrospiro[indene-2,4′-piperidin]-1′-yl]-5-(2,3-dichlorophenyl)-6-methylpyrimidine-4-carboxamide] the IC50 [3] was 21 nM.
With `NC(=O)c1nc(N2CCC3(CC2)Cc2ccccc2[C@H]3N)nc(N)c1-c1cccc(Cl)c1Cl` (single isomer, unassigned) [Compound 117] the IC50 [3] was 1 nM.
`NC(=O)c1nc(N2CCC3(CC2)Cc2ccccc2[C@H]3N)nc(N)c1-c1cccc(Cl)c1Cl` (atropisomer, axis not shown; (M)) [Compound 118, (5M)-6-amino-2-[(1S)-1-amino-1,3-dihydrospiro[indene-2,4′-piperidin]-1′-yl]-5-(2,3-dichlorophenyl)pyrimidine-4-carboxamide] gave an IC50 [3] of 114 nM.
For `NC(=O)c1nc(N2CCC3(CC2)Oc2ncccc2C3N)nc(N)c1-c1cccc(Cl)c1Cl` (single isomer, unassigned) [Compound 128], the IC50 [3] was 161 nM.
Work on `Cc1nc(N2CCC3(CC2)CC(F)(F)C[C@H]3N)nc(C(N)=O)c1-c1cccc(Cl)c1Cl` (atropisomer, axis not shown; (P)) [Compound 97, (5P)-2-[(1R)-1-amino-3,3-difluoro-8-azaspiro[4.5]decan-8-yl]-5-(2,3-dichlorophenyl)-6-methylpyrimidine-4-carboxamide] yielded an IC50 [1] of 4400 nM.
For `Cc1nc(N2CCC3(CC2)Oc2ncccc2[C@H]3N)nc(C(N)=O)c1-c1cccc(Cl)c1Cl` [Compound 124, (4M)-2-[(3R)-3-amino-3H-spiro[furo[2,3-b]pyridine-2,4′-piperidin]-1′-yl]-5-(2,3-dichlorophenyl)-6-methylpyrimidine-4-carboxamide], the IC50 [3] was 268 nM.
With `CC1(N)CCN(c2cnc(-c3cccc(Cl)c3Cl)c(N)n2)CC1` [SHP-099, SHP099, reference compound] the “Cmax Normalized to 1 mgk” value [2] was 48 ng/mL and the “AUC (normalized 1 mpk)” value [2] was 129 ng·h/mL.
